Measurements: EP4592290A1, “CARBONYL FUSED HETEROCYCLIC DERIVATIVE USED AS UBIQUITIN-SPECIFIC PROTEASE INHIBITOR” (Chia Tai Tianqing Pharmaceutical Group Co., Ltd., priority 2022, dated 2024)

These compounds were tested against USP1/UAF1 (Homo sapiens, UniProt O94782) (assay: Assay on USP1/UAF1 enzymatic inhibitory activity (Ub-Rhodamine)). Details: USP1/UAF1 protein 10 nM, Ub-Rhodamine 300 nM, 30 min pre-incubation, 90 min reaction.
Sequence of USP1/UAF1 (O94782 whole entry): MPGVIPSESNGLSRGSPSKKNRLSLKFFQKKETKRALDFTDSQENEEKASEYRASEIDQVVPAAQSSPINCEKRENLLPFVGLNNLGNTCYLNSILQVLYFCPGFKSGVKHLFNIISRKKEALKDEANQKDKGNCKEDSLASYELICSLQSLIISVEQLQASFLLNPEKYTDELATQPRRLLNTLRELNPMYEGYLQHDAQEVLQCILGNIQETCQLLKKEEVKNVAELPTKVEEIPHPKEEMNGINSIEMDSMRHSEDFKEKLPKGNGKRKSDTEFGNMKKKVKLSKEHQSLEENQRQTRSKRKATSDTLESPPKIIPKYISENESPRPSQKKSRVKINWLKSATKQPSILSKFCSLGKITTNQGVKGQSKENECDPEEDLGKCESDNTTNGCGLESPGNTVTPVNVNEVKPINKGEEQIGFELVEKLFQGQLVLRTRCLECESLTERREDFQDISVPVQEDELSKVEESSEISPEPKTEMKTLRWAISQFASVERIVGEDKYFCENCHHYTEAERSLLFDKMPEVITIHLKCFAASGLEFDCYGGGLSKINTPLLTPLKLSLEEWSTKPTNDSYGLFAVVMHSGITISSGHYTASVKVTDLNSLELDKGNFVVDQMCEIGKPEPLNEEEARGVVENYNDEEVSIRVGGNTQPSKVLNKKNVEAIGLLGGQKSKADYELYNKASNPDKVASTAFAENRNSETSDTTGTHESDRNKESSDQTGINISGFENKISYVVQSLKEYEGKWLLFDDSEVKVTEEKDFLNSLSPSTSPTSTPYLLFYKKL
Sequence of USP1/UAF1 (Q8TAF3 whole entry partner): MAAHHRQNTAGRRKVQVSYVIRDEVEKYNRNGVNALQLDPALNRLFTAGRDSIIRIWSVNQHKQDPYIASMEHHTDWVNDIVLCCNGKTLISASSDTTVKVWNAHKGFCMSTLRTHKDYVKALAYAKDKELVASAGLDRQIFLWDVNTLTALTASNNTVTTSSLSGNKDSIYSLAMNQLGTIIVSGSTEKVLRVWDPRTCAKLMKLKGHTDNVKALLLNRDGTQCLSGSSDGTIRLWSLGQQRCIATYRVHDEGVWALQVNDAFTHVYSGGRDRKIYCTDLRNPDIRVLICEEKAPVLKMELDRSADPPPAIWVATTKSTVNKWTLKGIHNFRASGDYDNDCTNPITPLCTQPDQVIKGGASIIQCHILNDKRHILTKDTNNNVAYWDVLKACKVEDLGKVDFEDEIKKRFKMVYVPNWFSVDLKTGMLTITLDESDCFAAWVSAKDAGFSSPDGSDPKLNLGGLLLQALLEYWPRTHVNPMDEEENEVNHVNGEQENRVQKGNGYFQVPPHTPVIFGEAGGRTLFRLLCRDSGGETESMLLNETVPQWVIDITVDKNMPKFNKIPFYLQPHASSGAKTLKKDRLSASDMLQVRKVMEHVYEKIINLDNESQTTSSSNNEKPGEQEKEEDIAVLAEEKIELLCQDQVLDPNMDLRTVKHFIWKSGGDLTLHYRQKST
Assay type: biochemical
Description: A USP1/UAF1 protein solution (with a concentration of 10 nM) was added to assay wells at 10 µL/well, and different compounds dissolved in DMSO were separately added to the assay wells using a nanoliter pipettor, such that the final concentrations of the compounds were 1000 nM-0.24 nM. The wells were set in duplicate, and a control well was set. After incubation of the system described above at room temperature for 30 min, Ub-Rhodamine (with a concentration of 300 nM) was added to the assay wells at 10 µL/well. The mixtures were reacted at room temperature for 90 min, and then the plate was read using a PerkinElmer Envision multifunctional microplate reader (Ex. 490 nm/Em. 520 nm). IC50 was calculated by four-parameter fitting.
`[2H]C([2H])([2H])n1c(=O)n(Cc2ccc(-c3nc(C(F)(F)F)cn3C(C)C)cc2)c2c(F)c(-c3c(OC)ncnc3C3CC3)ncc21` [Example 16] was tested, and the IC50 was < 50 nM.
With `COc1ncnc(C2CC2)c1-c1ncc2c(c1F)n(Cc1ccc(-c3nc(C(F)(F)F)cn3C)cc1)c(=O)n2C` [Example 3] the IC50 was < 50 nM.
`[2H]C([2H])([2H])n1c(=O)n(Cc2ccc(-n3nc(C(C)(F)F)cc3C)cc2)c2c(F)c(-c3c(OC)ncnc3C3CC3)ncc21` [Example 17] gave an IC50 of 50 to 100 nM.
In the case of `[2H]C([2H])([2H])n1c(=O)n(Cc2ccc(-n3nc(C(F)(F)F)cc3C)cc2)c2c(F)c(-c3c(OC)ncnc3C3CC3)ncc21` [Example 15], the IC50 is reported as < 50 nM.

These compounds were tested on MDA-MB-436 cells (assay: Assay on inhibitory activity for MDA-MB-436 cell proliferation (CCK-8)). Details: Homo sapiens, 168 h, 7 days of incubation, CCK-8, absorbance at 450 nm.
Assay type: cell-based
Description: MDA-MB-436 cells in a good growth state were collected into a centrifuge tube, adjusted to a cell density of 10^4 cells/mL, and seeded in a 96-well plate (100 µL/well), and the plate was incubated overnight in a cell incubator. Compounds were added using a nanoliter pipettor, such that the final concentrations of the compounds were 1000 nM-0.457 nM. The wells were set in duplicate, and a control well was set. After another 7 days of incubation in the cell incubator, the detection reagent CCK-8 (manufacturer: Dojindo Laboratories; 10 µL/well) was added. After 2 h of incubation in the cell incubator, absorbance values were detected at 450 nm using an Envision microplate reader, the four-parameter analysis was performed, the dose-response curves were fit, and IC50 was calculated. The experimental results are shown in Table 1, where A represents 0 nM < IC50 ≤ 50 nM; B represents 50 nM < IC50 ≤ 100 nM; C represents 100 nM < IC50 ≤ 1000 nM; and D represents 1000 nM < IC50. Table 1. Inhibitory activity for MDA-MB-436 cell proliferation
For `[2H]C([2H])([2H])n1c(=O)n(Cc2ccc(-c3nc(C(F)(F)F)cn3C(C)C)cc2)c2c(F)c(-c3c(OC)ncnc3C3CC3)ncc21` [Example 16], the IC50 was < 50 nM.
`COc1ncnc(C2CC2)c1-c1ncc2c(c1F)n(Cc1ccc(-c3nc(C(F)(F)F)cn3C)cc1)c(=O)n2C` [Example 3] was tested, and the IC50 was < 50 nM.
For `[2H]C([2H])([2H])n1c(=O)n(Cc2ccc(-n3nc(C(C)(F)F)cc3C)cc2)c2c(F)c(-c3c(OC)ncnc3C3CC3)ncc21` [Example 17], the IC50 was 50 to 100 nM.
Compound `[2H]C([2H])([2H])n1c(=O)n(Cc2ccc(-n3nc(C(F)(F)F)cc3C)cc2)c2c(F)c(-c3c(OC)ncnc3C3CC3)ncc21` [Example 15] has an IC50 of 50 to 100 nM.
